Experiments:
[1] = system: LMP1 and Cp transcripts in Kem I, Mutu I, and Rael cell lines; assay type: cell-based, EBV
[2] = system: LMP1 and EBNA3C proteins in BL cells; assay: Immunoblot for viral proteins in BL cells; assay type: cell-based, EBV; settings: 48 hours
Procedure: Immunoblot was performed with the standard procedure using the following antibodies: β-actin (GeneTex), BZLF1 (Santa Cruz), EBNA1 (Santa Cruz), EBNA2 (AbCam), EBNA3C (gift from Benjamin Gewurz), GAPDH (GeneTex), and LMP1 (AbCam).
Since decitabine and 5-azacytadine were the top hits on the epigenetic screen, the effect of these agents on latency II/III transcript and protein expression was investigated as well as the dose-response in a panel of BL cell lines. BL cells were treated with decitabine or 5-azacytidine over a range of doses. Viral antigen expression was evaluated by qRT-PCR, immunoblot, and immunohistochemistry. […] This was associated with upregulation of LMP1 and EBNA3C proteins (FIG. 2B).

[3] = system: EBNA2 and LMP1 in Kem I cells; assay: Immunohistochemistry on cell blocks with HALO quantification; assay type: cell-based, EBV; settings: decitabine at 500 nM, 48 hours
Procedure: (§1) Cell blocks were generated from cell lines in suspension by fixation in 10% formalin. Immunohistochemistry on cell blocks and mouse tumors was performed with the following antibodies: EBNA2 (abcam #ab90543), LMP1 (Dako #M0897), BZLF1 (Santa Cruz #SC-53904), CD8 (Leica #PA0183), PD-1 (Dako #M3653), PD-L1 (Cell Marque #315M-98). The Halo® image analysis software program (Indica Labs) was used to quantify immunohistochemical stains.
(§2) Next it was determined the percentage of cells that convert to expressing latency […] antigens after treatment with decitabine or 5-azacytadine. To do this, EBV antigen expression at the single-cell level was evaluated by immunohistochemistry (IHC) from cell blocks. Cells were treated with 5-azacytidine, decitabine, or vehicle control. Cell blocks were then evaluated by IHC for LMP1 and EBNA2. The percentage of positive cells was quantified with HALO image analysis. […] 5-azacytidine induced a more modest expression of EBNA2 and LMP1 across the three cell lines (FIGS. 2E-F). Based on these observations, decitabine was further investigated as a potential agent to induce expression of immunogenic viral antigens in latency I tumors.

[4] = system: EBNA2 and LMP1 in Mutu I cells; assay: as above; assay type: cell-based, EBV; settings: decitabine at 500 nM, 48 hours
Procedure: as §1, §2

[5] = system: EBNA2 and LMP1 in Rael cells; assay: as above; assay type: cell-based, EBV; settings: decitabine at 500 nM, 48 hours
Procedure: as §1, §2

Kem I xenografts = assay: BL xenograft, immunohistochemistry of tumors for viral antigens; assay type: in vivo, mice
Procedure: as §1
(§3) To evaluate the effect of decitabine on viral antigen expression in-vivo, we generated Mutu I, Kem I, and Rael xenografts. Upon engraftment, mice were treated with a 7-day course of decitabine (0.5 mg/kg or 1 mg/kg daily) or vehicle control. After treatment tumors were evaluated by immunohistochemistry. Vehicle treated mice had minimal or no expression of EBNA2 and LMP1 (FIGS. 3A-B). […] LMP1 expression was increased in Kem xenografts (p=0.04, FIG. 3B).
(§4) In addition to modulating latent gene expression, 5-azacytidine is known to activate lytic programming in EBV (Bhende, Seaman et al. 2004, Chan, Tao et al. 2004, Bergbauer, Kalla et al. 2010, Kalla, Gobel et al. 2012, Woellmer, Arteaga-Salas et al. 2012). Upon exposure to 5-azacytidine, the Rael cell line generates lytic and latent antigens but in distinct cell populations (Masucci, Contreras-Salazar et al. 1989). To determine if the lytic program was being activated after exposure to decitabine qRT-PCR was performed for BZLF1, the gene responsible for activating early lytic genes in Rael, Mutu I, and Kem I cells. […] In the xenograft models, BLZF1 was evaluated by IHC.

Mutu I xenografts = assay: as above; assay type: in vivo, mice
Procedure: as §1, §3, §4

Rael xenografts = assay: as above; assay type: in vivo, mice
Procedure: as §1, §3
If induction of immunogenic antigens were to be used as therapeutic approach in EBV+ lymphomas, it would be important to ensure that the induction persists after removal of drug to allow time for an adequate T-cell response. The durability of latency III induction was evaluated by treating cell lines with 250 nM of decitabine for 3 days and then evaluating LMP1 and Cp promoter expression after washout of the drug. […] Rael xenografts were also evaluated for durability of induction in-vivo. […] Mice observed at later timepoints continued to express EBNA2 with some areas of tumor remaining EBNA2 positive as late as 63 days post-treatment (FIG. 4C).
In addition to modulating latent gene expression, 5-azacytidine is known to activate lytic programming in EBV (Bhende, Seaman et al. 2004, Chan, Tao et al. 2004, Bergbauer, Kalla et al. 2010, Kalla, Gobel et al. 2012, Woellmer, Arteaga-Salas et al. 2012).

[6] = system: BZLF1 in Rael, Mutu I, and Kem I cells; assay: qRT-PCR for BZLF1 (lytic induction); assay type: cell-based, EBV; settings: all three cell lines
[7] = system: EBV genome in Kem I, Rael, and Mutu I cells; assay: Quantitative DNA methylation analysis using MassARRAY EpiTYPER; assay type: cell-based; settings: 48 hours, all three latency I cell lines, including Cp promoter and LMP1/2 loci
[8] = system: first 13 kB of the EBV genome in Kem I, Rael, and Mutu I cells; assay: Methyl-Capture sequencing of cell lines; assay type: cell-based
Rael cells = assay: Cr51 release assay with EBV-CTLs; assay type: cell-based; settings: Rael cells treated at 250 nM for 72 hours, 25:1 effector to target ratio
Mutu I cells = assay: Cr51 release assay with EBV-CTLs; assay type: cell-based; settings: Mutu I cells treated at 250 nM for 72 hours, 25:1 effector to target ratio
[9] = system: subcutaneous xenografts of Rael cells; assay type: in vivo, NSG mice
in vitro [10] = settings: human, Mutu I cells
Procedure: (§5) Cell viability was determined using CellTiter-Glo (Promega) and the GloMax® Multi+ detection system (Promega).
(§6) Cell viability was determined using an ATP based luminescent assay (CellTiter-Glo, Promega) and the GloMax® Multi+ detection system (Promega). IC50 values were calculated using Prism 6 software.
(§7) To determine if induction of LMP1 and EBNA3 were linked to hypomethylating agent-induced cell death, cells were exposed to decitabine or 5-azacytadine over a range of doses and cell viability evaluated with the ATP-based Cell Titer-Glo® assay.

in vitro [11] = settings: human, Rael cells
Procedure: as §5, §6, §7

Mutu I = assay: Cell viability, CellTiter-Glo; settings: read-out: 48 Hour IC50
Procedure: as §5, §6, §7

[12] = Cell viability, CellTiter-Glo; settings: human, Kem I cells
Procedure: as §5, §6, §7

Kem I = assay: Cell viability, CellTiter-Glo; settings: 48 h, read-out: 48 Hour IC50
Procedure: as §5, §6, §7

Rael = assay: Cell viability, CellTiter-Glo; settings: read-out: 48 Hour IC50
Procedure: as §5, §6, §7

BL cells = assay: Cell viability, CellTiter-Glo, statements for the BL cell panel
Procedure: as §5, §6, §7

## Nc1ncn([C@H]2C[C@H](O)[C@@H](CO)O2)c(=O)n1 [decitabine, 5-aza-2′-deoxycytidine]
[1]; 250 nM for 3 days, then 1, 3, 5, and 7 days after washout
  LMP1 and Cp expression by qRT-PCR after washout: persists with minimal decrement
[1]; BL cells, 48 hours of treatment
  lowest dose with dose dependent induction of LMP1 and Cp transcripts: 25 nM
[2]
  LMP1 and EBNA3C proteins (immunoblot): upregulation
[3]
  percentage of EBNA2 positive cells: 57.8%
  percentage of LMP1 positive cells: 54.9%
[4]
  percentage of EBNA2 positive cells: 28.3%
  percentage of LMP1 positive cells: 41.8%
[5]
  percentage of EBNA2 positive cells: 37.2%
  percentage of LMP1 positive cells: 27.4%
Kem I xenografts; 7-day course, 0.5 mg/kg or 1 mg/kg daily IP, p=0.04
  LMP1 expression in tumors (IHC): increased
Kem I xenografts; Kem I xenograft, 7 days of treatment
  BZLF1 by IHC in tumors: minimal or no induction
Mutu I xenografts; 7-day course, 0.5 mg/kg or 1 mg/kg daily IP, p=0.044
  EBNA2 expression in tumors (IHC): upregulation was observed
Mutu I xenografts; Mutu I xenograft, 7 days of treatment
  BZLF1 by IHC in tumors: induction was observed
Rael xenografts; 7-day course, 0.5 mg/kg or 1 mg/kg daily IP, p=0.017
  EBNA2 expression in tumors (IHC): upregulation was observed
Rael xenografts; Rael xenograft, 7 days of treatment
  BZLF1 by IHC in tumors: minimal or no induction
Rael xenografts; post-treatment
  latest time with areas of tumor remaining EBNA2 positive: 63 days
Rael xenografts; tumors evaluated 4 days after a 7-day course
  percentage of EBNA2 positive cells after discontinuation of drug: persistent induction with no decrement
[6]
  BZLF1 (qRT-PCR) over time after removal of drug: decreased over time after removal of drug
[6]; after exposure for 72 hours
  BZLF1 (qRT-PCR): increase
[7]
  DNA methylation across the EBV viral genome (MassARRAY): loss of methylation
[8]; after treatment, all three cell lines
  methylation across the covered areas (Methyl-Capture sequencing): global hypomethylation
[8]; drug 48 hours followed by 7-day washout
  methylation after removal of drug (Methyl-Capture sequencing): remained hypomethylated
Rael cells
  % lysis by EBNA3C reactive EBV-CTLs: 26.07%
Mutu I cells
  % lysis by EBNA3A reactive EBV-CTLs: 16.17%
  % lysis by LMP1-reactive EBV-CTLs: 74.11%
[9]; daily for 7 days, 1 mg/kg
  latent antigens EBNA2 and LMP1 in tumors: induction
  lytic protein BZLF1 in tumors: minimal change
[9]; mouse, in vivo
  PD-L1 expression in tumors: did not increase
In vitro [10]
  viability: 62%
In vitro [11]
  viability: 102%
Mutu I
  IC50: > 5 µM
[12]
  viability: 128%
Kem I
  IC50: > 5 µM
Rael
  IC50: > 5 µM
BL cells
  IC50: > 5 µM

Reference: patent publication US20230053688A1, “METHODS TO ALTER LATENCY IN EBV+ MALIGNANCIES” (Cornell University, priority 2020, published 2023)
